# Measurements reported in US20210316003A1 (Immunomedics, Inc., priority 2020, published 2021).
# Several values for one entry are separate records, joined by “and”; a condition that tells them apart may be missing. Equal entries are not always repeated.
# What was measured:
# [1] = In vivo animal studies: release of SN-38 from the conjugate
# Text: Plasma CEA and CA19-9 correlated with responses.
# [2] = tested on: patients with metastatic TNBC; experiment: Phase I/II trial (NCT01631552), metastatic TNBC: adverse events; type: in vivo, human; details: N = 108
# Text: Patients with relapsed/refractory TNBC who had previously failed at at least one prior line of therapy were enrolled in a single-arm, multicenter trial (Bardia et al., 2019, N Engl J Med 380:741-51). The present study reports on 108 patients who had failed at least two prior lines of therapy (median three prior therapies) (Bardia et al., 2019, N Engl J Med 380:741-51). […] For severe treatment-related adverse events, a 25% dose reduction was allowed after the first occurrence, 50% after the second and discontinuation after the third. Of the 108 patients, 107 were female and 1 was male, with a median age of 55. Prior therapies included treatment with taxanes (98%), anthracyclines (86%), platinum agents (69%), gemcitabine (55%), eribulin (45%) and checkpoint inhibitors (17%). Tumor staging was performed by computed tomography (CT) and MRI at baseline, followed up at 8 week intervals from the start of treatment until disease progression.
# patients with mSCLC = experiment: Phase I/II trial (NCT01631552), mSCLC: efficacy by RECIST 1.1; type: in vivo, human
# Text: Patients ≥18 years of age with mSCLC who had relapsed or were refractory to at least one prior standard line of therapy for stage IV metastatic disease, and with measurable tumors by CT, were enrolled. […] Previous therapy had to be completed at least 4 weeks before enrollment.
# The primary endpoint was the proportion of patients with a confirmed objective response, assessed approximately every 8 weeks until disease progression, by each institution's radiology group or a contracted local radiology service. Objective responses were assessed by Response Evaluation Criteria in Solid Tumors, version 1.1 (RECIST 1.1) (Eisenhauer et al., 2009, Eur J Cancer 45:228-47). Partial (PR) or complete responses (CR) required confirmation within 4 to 6 weeks after the initial response. Clinical benefit rate (CBR) is defined as those patients with an objective response plus stable disease (SD) ≥4 months. Survival was monitored every 3 months until death or withdrawal of consent.
# The protocol provided that objective response rates (ORR) were determined for patients who received ≥2 doses (1 cycle) and had their initial 8-week CT assessment. Duration of response is defined in accordance to RECIST 1.1 criteria, with those having an objective response marked from time of the first evidence of response until progression, while stable disease duration is marked from the start of treatment until progression. PFS and OS were defined from the start of treatment until an objective assessment of progression was determined (PFS) or death (OS). Duration of response, PFS, and OS were estimated by Kaplan-Meier methods, with 95% confidence intervals (CI), using MedCalc Statistical Software, version 16.4.3 (Ostend, Belgium).
# [3] = tested on: patients with non-small cell lung cancer (NSCLC); details: cited from earlier work
# [4] = SG as ≥3 line, no prior topotecan/irinotecan (N = 9)
# [5] = SG as ≥3 line, prior topotecan/irinotecan (N = 15)
# [6] = prior immune checkpoint inhibitor
substance,measurement,setting,value
sacituzumab govitecan,SN-38 released from the conjugate daily,[1],50%
same,"Anemia, % of patients",[2],50%
same,"Anemia, grade 3",[2],11%
same,"Decreased white blood cell count, grade 4",[2],3%
same,"Diarrhea, % of patients",[2],62%
same,"Diarrhea, grade 3",[2],8%
same,"Fatigue, % of patients",[2],55%
same,"Fatigue, grade 3",[2],8%
same,"Hyperglycemia, grade 4",[2],1%
same,"Nausea, % of patients",[2],67%
same,"Nausea, grade 3",[2],6%
same,"Neutropenia, % of patients",[2],64%
same,"Neutropenia, grade 3",[2],26%
same,"Neutropenia, grade 4",[2],16%
same,"Vomiting, % of patients",[2],49%
same,"Vomiting, grade 3",[2],6%
same,"Duration of SD in ten patients with SD ≥4 months, Kaplan-Meier-derived median",patients with mSCLC,5.6 months
same,Median OS for the seven confirmed PR patients,patients with mSCLC,9.2 months
same,Median OS for the ten patients with SD ≥4 months,patients with mSCLC,8.3 months
same,Confirmed PR,"patients with mSCLC; 8 mg/kg starting dose, thirteen patients",8%
same,Confirmed PR,patients with mSCLC; 10 mg/kg starting dose (N = 30),20%
same,CBR (clinical benefit rate),"patients with mSCLC; 10 mg/kg starting dose, 14/30",47%
same,Patients with a reduction of tumor size from baseline,patients with mSCLC; 21 of 43 CT-assessable patients,49%
same,"Stable disease (SD), including unconfirmed PR",patients with mSCLC; 21 of 43 assessable patients,49%
same,"PD, %",patients with mSCLC; 43 with response assessment,(35%)
same,"Duration of confirmed objective response, median",patients with mSCLC; Kaplan-Meier,5.7 months
same,"Clinical benefit rate (PR + SD ≥ 4 months), %",patients with mSCLC; SG as second line (N = 19),(37%)
same,"OS, median",patients with mSCLC; SG as second line (N = 19),8.1 months
same,"PFS, median",patients with mSCLC; SG as second line (N = 19),3.6 months
same,"Clinical benefit rate (PR + SD ≥ 4 months), %",patients with mSCLC; SG as ≥3 line (N = 24),(38%)
same,"OS, median",patients with mSCLC; SG as ≥3 line (N = 24),7.0 months
same,"PFS, median",patients with mSCLC; SG as ≥3 line (N = 24),3.7 months
same,"Clinical benefit rate (PR + SD ≥ 4 months), %",patients with mSCLC; [4],(33%)
same,"OS, median",patients with mSCLC; [4],5.5 months
same,"PFS, median",patients with mSCLC; [4],3.7 months
same,"Clinical benefit rate (PR + SD ≥ 4 months), %",patients with mSCLC; [5],(40%)
same,"OS, median",patients with mSCLC; [5],8.8 months
same,"PFS, median",patients with mSCLC; [5],3.8 months and 3.6 months
same,"Overall survival, median",patients with mSCLC; intention-to-treat N = 53,7.0 months
same,"Progression-free survival, median",patients with mSCLC; intention-to-treat N = 53,3.6 months
same,"Tumor shrinkage (SD lasting 8.7 months), single patient",patients with mSCLC; [6],17%
same,"Tumor shrinkage on first assessment (unconfirmed PR), single patient",patients with mSCLC; [6],54%
same,"Clinical benefit rate (PR + SD ≥ 4 months), %",patients with mSCLC; resistant (N = 19) to 1st line,(26%)
same,"OS, median",patients with mSCLC; resistant (N = 19) to 1st line,6.2 months
same,"PFS, median",patients with mSCLC; resistant (N = 19) to 1st line,3.6 months
same,Confirmed PR,"patients with mSCLC; resistant to first-line platinum, nineteen patients",16%
same,PR,"patients with mSCLC; second-line setting, 3/19",16%
same,"Clinical benefit rate (PR + SD ≥ 4 months), %",patients with mSCLC; sensitive (N = 24) to 1st line,(50%)
same,"OS, median",patients with mSCLC; sensitive (N = 24) to 1st line,8.3 months
same,"PFS, median",patients with mSCLC; sensitive (N = 24) to 1st line,3.8 months
same,Confirmed PR,"patients with mSCLC; sensitive to first-line platinum, 24 patients",17%
same,Median time to response,patients with mSCLC; seven confirmed PR,2.0 months
same,Median PFS for the confirmed PR group,patients with mSCLC; seven patients,7.9 months
same,Confirmed PR,patients with mSCLC; third or higher line (N = 24),16%
same,ORR,"[3]; 47 response assessable patients, median of three prior therapies",19%
same,Clinical benefit rate,[3]; 47 response assessable patients,43%
same,Median OS,[3],9.5 months
same,Median PFS,[3],5.2 months
